From patent US20130079394A1, “Indirect modeling of new repellent molecules active against insects, acarids, and other arthropods” (CNRS (CENTRE NATIONAL RECHERCHE SCIENTIFIQUE), priority 2011, published 2013)

System: mosquitoes
Assay: not given
Details: absence of body odor attractants such as 1-octen-3-ol, lactic acid, or carbon dioxide; cited from earlier work

For `CCN(CC)C(=O)c1cccc(C)c1` [DEET, N,N-Diethyl-meta-toluamide], which “repellent activity in a behavioral test” value is on record?
Its value is “strong repellent activity”.

System: not given
Assay: not given
Details: reported by US EPA (RED); cited from earlier work

For `CCN(CC)C(=O)c1cccc(C)c1` [DEET, N,N-Diethyl-meta-toluamide], which “deaths among DEET-associated seizure cases” value is on record?
The value was 4 deaths.

System: flies
Assay: Repellency index of coumarin derivatives evaluated in vivo (index from −1 to 1, function of a number of flies)
Parameters: key to Repellency Index: index from −1 to 1, 1 = highly repellent
Details: experimental index ranging from −1 to 1 (1 = highly repellent); measurement error about ±0.1; data set of USSN 61,501,485
Procedure: Up until now, all existing models for repellency have been based on protection time value, which is different for each. Moreover, the environmental parameters in which the animals are studied are frequently different. As a consequence, data produced using different models cannot be combined/compared. […] The numerical value obtained was not a protection time but rather an index ranging from −1 to 1 (with 1 being highly repellent). This number was calculated for each experiment and is function of a number of flies.
To minimize the deleterious effects of these potentially confounding factors, “repellency classes” were established. Based on the repellency index values, the dataset was divided into 2, 3, 4 or 5 repellency class subsets, in order to reduce the difficulty of modeling the property of slightly repellent molecules. For example, in the four classes' models, the thresholds between the classes are defined as follow: […]

Which “Repellency Index” value does the source give for `CCC(C)OC(=O)c1ccc2ccc(=O)oc2c1` (stereo not drawn) [EV 05178] here?
The value was 0.71.

Which “Repellency Index” value does the source give for `CCCCN(CCCC)C(=O)COc1ccc2ccc(=O)oc2c1` [EV 05120] here?
The value was 0.71.

With `CC(C)COc1cc(=O)oc2ccccc12` [EV07070] as the compound, how does the “Repellency Index” value read?
Its value is 0.94.

For `CC(C)COC1CCC2CCC(=O)OC2C1` (stereo not drawn) [EV 04188], which “Repellency Index” value is on record?
Its value is 0.65.

For `CCCCN(CCCC)C(=O)c1ccc2ccc(=O)oc2c1` [EV 05138], which “Repellency Index” value is on record?
The value was 0.72.

Which “Repellency Index” value does the source give for `CCC(C)Oc1cc(=O)oc2ccccc12` (stereo not drawn) [EV 06088] here?
Its value is 0.82.

For `COC(=O)/C=C/c1ccccc1O` [EV 05056], which “Repellency Index” value is on record?
Its value is 0.40.

Which “Repellency Index” value does the source give for `CCC(CC)Oc1ccc2oc(=O)ccc2c1` [EV 06018] here?
Its value is 0.43.

With `CCC(CC)OC(=O)c1ccc2ccc(=O)oc2c1` [EV 05162] as the compound, how does the “Repellency Index” value read?
The value was 0.62.

For `CC(C)C(C)Oc1cc(=O)oc2ccccc12` (stereo not drawn) [EV 06128], which “Repellency Index” value is on record?
The value was 0.34.

Which “Repellency Index” value does the source give for `CCCCC(CC)C(=O)Oc1ccc2ccc(=O)oc2c1` (stereo not drawn) [EV 04016] here?
Its value is 0.11.

Which “Repellency Index” value does the source give for `CCCCCCOc1ccc2ccc(=O)oc2c1` [EV 06110] here?
The value was 0.78.

Which “Repellency Index” value does the source give for `CCCCCCCCN(CCCCCCCC)C(=O)COc1cc(=O)oc2ccccc12` [EV 07068] here?
Its value is 0.98.

Which “Repellency Index” value does the source give for `CCC(C)COc1ccc2ccc(=O)oc2c1` (stereo not drawn) [EV 04094] here?
Its value is 0.73.

For `CCC(CC)OC(=O)COc1ccc2ccc(=O)oc2c1` [EV 05174], which “Repellency Index” value is on record?
Its value is 0.69.

Which “Repellency Index” value does the source give for `CCCCOc1ccc2ccc(=O)oc2c1` [EV 04036] here?
The value was −0.06.

With `CCC(C)OC(=O)COc1ccc2ccc(=O)oc2c1` (stereo not drawn) [EV 06178] as the compound, how does the “Repellency Index” value read?
Its value is 0.25.

Which “Repellency Index” value does the source give for `CCCCCCCCOc1ccc2ccc(=O)oc2c1` [EV 06144] here?
The value was 0.83.

For `CCC(C)CC(=O)Oc1ccc2ccc(=O)oc2c1` (stereo not drawn) [EV 04062], which “Repellency Index” value is on record?
The value was 0.04.

With `CCC(C)Oc1ccc2ccc(=O)oc2c1` (stereo not drawn) [EV 04058] as the compound, how does the “Repellency Index” value read?
Its value is 0.76.

With `CCC(C)COC(=O)COc1ccc2ccc(=O)oc2c1` (stereo not drawn) [EV 06058] as the compound, how does the “Repellency Index” value read?
Its value is 0.52.

Which “Repellency Index” value does the source give for `CCC(C)NC(=O)c1ccc2ccc(=O)oc2c1` (stereo not drawn) [EV 06166] here?
The value was 0.25.

With `CCCCCCCCN(CCCCCCCC)C(=O)c1ccc2ccc(=O)oc2c1` [EV 06096] as the compound, how does the “Repellency Index” value read?
The value was 0.91.

For `C/C=C(\C)C(=O)Oc1ccc2ccc(=O)oc2c1` [EV 04024], which “Repellency Index” value is on record?
The value was 0.26.

For `C=CCOc1ccc2ccc(=O)oc2c1` [EV 04032], which “Repellency Index” value is on record?
Its value is 0.19.

Which “Repellency Index” value does the source give for `CCC(C)OC(=O)N1CCCCC1CCOc1ccc2ccc(=O)oc2c1` (stereo not drawn) [EV 04042] here?
The value was 0.43.

Which “Repellency Index” value does the source give for `C=C(C)C1CC=C(COc2ccc3ccc(=O)oc3c2)CC1` (stereo not drawn) [EV 04090] here?
The value was 0.40.

With `CCCCCCCCN(CCCCCCCC)C(=O)COc1ccc2ccc(=O)oc2c1` [EV 06092] as the compound, how does the “Repellency Index” value read?
Its value is 0.35.

Which “Repellency Index” value does the source give for `CC(C)CCOc1ccc2ccc(=O)oc2c1` [EV 06036] here?
Its value is 0.73.

With `CCN(CC)C(=O)COc1ccc2ccc(=O)oc2c1` [EV 05096] as the compound, how does the “Repellency Index” value read?
The value was 0.80.

For `O=C(c1ccc2ccc(=O)oc2c1)N1CCCCC1` [EV 05118], which “Repellency Index” value is on record?
The value was −0.10.

For `CC(C)COc1ccc2oc(=O)ccc2c1` [EV07072], which “Repellency Index” value is on record?
The value was 0.98.

With `CCN(CC)C(=O)c1ccc2ccc(=O)oc2c1` [EV 05084] as the compound, how does the “Repellency Index” value read?
The value was 0.30.

For `CCC(C)Oc1ccc2oc(=O)ccc2c1` (stereo not drawn) [EV 06068], which “Repellency Index” value is on record?
The value was 0.88.

Which “Repellency Index” value does the source give for `CCCC(C)Oc1ccc2ccc(=O)oc2c1` (stereo not drawn) [EV 06044] here?
The value was 0.92.

With `CCC(C)C(=O)Oc1ccc2ccc(=O)oc2c1` (stereo not drawn) [EV 04030] as the compound, how does the “Repellency Index” value read?
Its value is −0.10.

With `CC1CCCCC1Oc1ccc2ccc(=O)oc2c1` (stereo not drawn) [EV 04084] as the compound, how does the “Repellency Index” value read?
The value was −0.01.

For `CC(C)Oc1ccc2ccc(=O)oc2c1` [EV 04054], which “Repellency Index” value is on record?
The value was 0.66.

For `CCC(C)OC(=O)COc1ccc2ccc(=O)oc2c1` (stereo not drawn) [EV 06046], which “Repellency Index” value is on record?
Its value is 0.08.

With `CCC(CC)Oc1ccc2ccc(=O)oc2c1` [EV 04114] as the compound, how does the “Repellency Index” value read?
Its value is 0.86.

Which “Repellency Index” value does the source give for `CCC(CC)Cc1cc(=O)oc2ccccc12` [EV 06062] here?
The value was 0.97.

For `CCCCCOc1cc(=O)oc2ccccc12` [EV 06136], which “Repellency Index” value is on record?
Its value is 0.77.

For `CC(=O)OC(C)C(=O)Oc1ccc2ccc(=O)oc2c1` (stereo not drawn) [EV 04122], which “Repellency Index” value is on record?
Its value is −0.36.

For `CCC(C)Oc1ccc2ccc(=O)oc2c1` (stereo not drawn) [EV 04070], which “Repellency Index” value is on record?
Its value is 0.83.

With `CCCCCOc1ccc2ccc(=O)oc2c1` [EV 06026] as the compound, how does the “Repellency Index” value read?
The value was 0.88.

For `CCCCCCC(C)Oc1cc(=O)oc2ccccc12` (stereo not drawn) [EV07078], which “Repellency Index” value is on record?
The value was 0.91.

With `CC1CCCCN1C(=O)c1ccc2ccc(=O)oc2c1` (stereo not drawn) [EV 05144] as the compound, how does the “Repellency Index” value read?
The value was 0.60.

Which “Repellency Index” value does the source give for `CC1CCCCN1C(=O)COc1ccc2ccc(=O)oc2c1` (stereo not drawn) [EV 05134] here?
Its value is 0.78.

For `CC(C)(C)COc1ccc2ccc(=O)oc2c1` [EV 06162], which “Repellency Index” value is on record?
Its value is −0.55.

With `CCCC(C)Oc1cc(=O)oc2ccccc12` (stereo not drawn) [EV 06098] as the compound, how does the “Repellency Index” value read?
The value was 0.95.

For `O=C(COc1ccc2ccc(=O)oc2c1)N1CCCCC1` [EV 05088], which “Repellency Index” value is on record?
The value was 0.07.

Which “Repellency Index” value does the source give for `CC(C)CCOc1cc(=O)oc2ccccc12` [EV 06140] here?
Its value is 0.84.

For `CCCCCCC(C)Oc1ccc2ccc(=O)oc2c1` (stereo not drawn) [EV 06148], which “Repellency Index” value is on record?
The value was 0.92.

With `CCCC(C)Oc1ccc2oc(=O)ccc2c1` (stereo not drawn) [EV 06154] as the compound, how does the “Repellency Index” value read?
Its value is 0.93.

Which “Repellency Index” value does the source give for `CC(C)C(C)Oc1ccc2ccc(=O)oc2c1` (stereo not drawn) [EV 06028] here?
Its value is 0.88.

Which “Repellency Index” value does the source give for `CCC(C)Oc1ccc2ccc(=O)oc2c1` (stereo not drawn) [EV 06188] here?
Its value is 0.87.

Same assay, conditions: values used as class thresholds

For `CCN(CC)C(=O)c1cccc(C)c1` [DEET, N,N-Diethyl-meta-toluamide], which “repellency index (RI) of reference repellents” value is on record?
The value was 0.83.

Which “repellency index (RI) of reference repellents” value does the source give for `CCC(C)OC(=O)N1CCCCC1CCO` (stereo not drawn) [Picaridine, reference compound] here?
The value was 0.70.
